# Experiments:
# PI3Kα = PI3Kα (Homo sapiens, UniProt P42336); assay: ADP-Glo Assay II, PI3Kα; assay type: biochemical; settings: read-out: IC50 for inhibition of PI3Kα activity
# Description: (§1) 1) The compound was diluted using Echo from Labcyte company, 50 nL of the compound was transferred into an assay plate, and centrifuged at a speed of 1000 rpm for 10 sec.
# (§2) 2) A kinase/lipid substrate mixed solution and a kinase reaction buffer/lipid substrate mixed solution were prepared; the kinase/lipid substrate mixed solution was added into columns 3-24 of the assay plate, 3 μL per well; the kinase reaction buffer/lipid substrate mixed solution was added into columns 1-2 of the assay plat, 3 μL per well; and the plate was centrifuged at a speed of 1000 rpm for 10 sec.
# (§3) 3) An ATP solution was prepared, and added into the assay plate, 2 μL per well; the plate was centrifuged at a speed of 1000 rpm for 10 sec, shaken and mixed in 2nd gear mode on a plate shaker for 1 min, further centrifuged at a speed of 1000 rpm for 10 sec, and incubated for 120 min at 23° C. […]
# (§4) 5) A kinase detection reagent was prepared, added into the assay plate, 10 μL per well; the plate was centrifuged at a speed of 1000 rpm for 10 sec, shaken and mixed in 2nd gear mode on a plate shaker for 1 min, further centrifuged at a speed of 1000 rpm for 10 sec, incubated for 30 min at 23° C.; and then read on the multi-marker detector Envision.
# IC50 results were analyzed by XLfit5 (Formula 205) of IDBS company.
# PI3K (p110α) = target: T1, PI3K (p110α) (Homo sapiens, UniProt P42336); assay: ADP-Glo Assay I, in vitro enzyme activity; assay type: biochemical; settings: 0.33 nM PI3Kalpha
# T1 construct: purchased Millipore 14-602-K
# Description: The test compounds were diluted with a three-fold concentration gradient, and 10 concentrations (10000 nM to 0.5 nM) were obtained in total.
# 50 nL of the test compounds of the present invention was transferred to a reaction plate (PerkinElmer #6007299), and added with 3 μL of an enzyme/substrate mixture (0.33 nM PI3Kalpha, Millipore #14-602-K/166.5 μM PIP2); after incubation for 20 min, 2 μL of an ATP solution (100 μM) was added to initiate the reaction; after 2 hours of reaction at room temperature, the kinase reaction was stopped by adding 5 μL ADP-Glo reagent, followed by incubation at room temperature for 60 min, allowing the remaining unreacted ATP to be completely digested; and the resulting solution was added with 10 μL of a kinase detection reagent and incubated at room temperature for 40 min, and then the […] was read on Envision. PIP2, ATP, the ADP-Glo reagent, and the kinase assay reagents are all from an ADP-Glo Kinase Assay Kit (Promega #V1792).
# IC50 was calculated using the standard 4-parameter fitting method (Model 205, XL-fit, iDBS).
# PI3Kγ = PI3Kγ (Homo sapiens, UniProt P48736); assay: ADP-Glo Assay II, PI3Kγ; assay type: biochemical; settings: read-out: IC50 for inhibition of PI3Kγ activity
# Description: as §1, §2, §3, §4
# [1] = system: human colon cancer CO-04-0032; assay: In vivo pharmacodynamics, subcutaneous xenograft tumor model of human colon cancer CO-04-0032; parameters: species or system BALB/c nude mice
# Description: The studies were conducted to examine if the test drugs have in vivo efficacy in the human colon cancer CO-04-0032 animal model and the gastric cancer ST-02-0013 animal model. The descriptions about the animal feeding, feed ingredients, experimental observation, experimental indexes, experimental termination, as well as data analysis in the tests were as follows:
# Animal Grouping: The animals were weighed and the tumor volume was measured prior to administration. The animals were randomly grouped according to tumor volume (randomized block design).
# Experimental Indexes: The experimental indexes were used to examine whether tumor growth is inhibited, delayed or cured. Tumor diameter was measured twice a week with a vernier caliper. The tumor volume was calculated by the formula: V=0.5a×b^2, wherein a and b represent the long diameter and short diameter of a tumor, respectively. Tumor growth inhibition (TGI) of a compound was evaluated with T-C (day) and T/C (%). […]
# Data Analysis: One-way ANOVA was used for comparison of three or more groups. […] All data was analyzed using SPSS 17.0. p<0.05 indicated a significant difference. […]
# PI3Kα, sequence (P42336 whole entry): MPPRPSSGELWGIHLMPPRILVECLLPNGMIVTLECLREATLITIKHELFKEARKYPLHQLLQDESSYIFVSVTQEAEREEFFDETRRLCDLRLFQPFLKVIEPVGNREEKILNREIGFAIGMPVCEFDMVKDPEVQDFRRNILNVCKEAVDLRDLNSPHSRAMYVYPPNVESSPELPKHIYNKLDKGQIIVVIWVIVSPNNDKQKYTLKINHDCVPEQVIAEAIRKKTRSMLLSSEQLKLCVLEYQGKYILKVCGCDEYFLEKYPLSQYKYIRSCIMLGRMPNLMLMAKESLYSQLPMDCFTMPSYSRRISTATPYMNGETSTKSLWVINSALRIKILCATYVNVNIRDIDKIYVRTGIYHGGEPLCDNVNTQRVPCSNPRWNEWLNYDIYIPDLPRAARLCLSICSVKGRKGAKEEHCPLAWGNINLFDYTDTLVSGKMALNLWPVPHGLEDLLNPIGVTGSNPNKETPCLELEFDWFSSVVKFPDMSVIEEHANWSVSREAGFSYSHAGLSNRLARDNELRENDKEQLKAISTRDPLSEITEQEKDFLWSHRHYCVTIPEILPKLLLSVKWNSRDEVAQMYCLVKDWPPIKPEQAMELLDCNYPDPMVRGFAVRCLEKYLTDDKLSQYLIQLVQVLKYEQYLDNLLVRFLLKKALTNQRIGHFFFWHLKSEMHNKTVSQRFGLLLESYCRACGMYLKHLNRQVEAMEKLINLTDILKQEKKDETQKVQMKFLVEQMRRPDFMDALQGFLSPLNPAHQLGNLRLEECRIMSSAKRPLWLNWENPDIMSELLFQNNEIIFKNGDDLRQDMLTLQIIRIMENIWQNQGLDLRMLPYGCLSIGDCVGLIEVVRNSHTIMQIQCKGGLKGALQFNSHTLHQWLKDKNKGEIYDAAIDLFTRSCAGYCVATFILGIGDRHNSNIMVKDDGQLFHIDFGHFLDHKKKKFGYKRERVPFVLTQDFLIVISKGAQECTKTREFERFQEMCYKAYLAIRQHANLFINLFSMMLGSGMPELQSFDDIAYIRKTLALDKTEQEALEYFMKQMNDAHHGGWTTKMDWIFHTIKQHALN
# PI3Kα, sequence (P27986 whole entry partner): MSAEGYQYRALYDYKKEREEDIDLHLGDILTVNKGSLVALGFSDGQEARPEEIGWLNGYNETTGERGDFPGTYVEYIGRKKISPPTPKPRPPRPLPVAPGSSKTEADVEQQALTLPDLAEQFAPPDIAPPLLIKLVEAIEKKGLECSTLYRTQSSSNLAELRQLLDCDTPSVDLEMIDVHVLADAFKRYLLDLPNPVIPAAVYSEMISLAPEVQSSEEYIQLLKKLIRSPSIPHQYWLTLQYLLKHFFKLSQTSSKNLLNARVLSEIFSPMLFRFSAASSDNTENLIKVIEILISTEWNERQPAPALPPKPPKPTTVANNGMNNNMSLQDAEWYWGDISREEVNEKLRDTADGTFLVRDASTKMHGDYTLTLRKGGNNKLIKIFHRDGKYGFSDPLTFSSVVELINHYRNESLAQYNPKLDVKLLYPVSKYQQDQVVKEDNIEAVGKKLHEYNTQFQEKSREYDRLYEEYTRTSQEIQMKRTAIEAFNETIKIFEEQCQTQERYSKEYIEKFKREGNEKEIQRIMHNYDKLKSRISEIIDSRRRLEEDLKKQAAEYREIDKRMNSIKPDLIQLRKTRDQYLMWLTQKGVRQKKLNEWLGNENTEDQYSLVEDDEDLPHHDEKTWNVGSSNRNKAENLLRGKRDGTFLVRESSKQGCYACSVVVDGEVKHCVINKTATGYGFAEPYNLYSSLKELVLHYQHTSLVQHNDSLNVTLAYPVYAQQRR
# T1 sequence (P42336 whole entry): as the sequence (P42336 whole entry) above
# T1 sequence (P27986 whole entry partner): as the sequence (P27986 whole entry partner) above
# PI3Kγ, sequence (P48736 whole entry): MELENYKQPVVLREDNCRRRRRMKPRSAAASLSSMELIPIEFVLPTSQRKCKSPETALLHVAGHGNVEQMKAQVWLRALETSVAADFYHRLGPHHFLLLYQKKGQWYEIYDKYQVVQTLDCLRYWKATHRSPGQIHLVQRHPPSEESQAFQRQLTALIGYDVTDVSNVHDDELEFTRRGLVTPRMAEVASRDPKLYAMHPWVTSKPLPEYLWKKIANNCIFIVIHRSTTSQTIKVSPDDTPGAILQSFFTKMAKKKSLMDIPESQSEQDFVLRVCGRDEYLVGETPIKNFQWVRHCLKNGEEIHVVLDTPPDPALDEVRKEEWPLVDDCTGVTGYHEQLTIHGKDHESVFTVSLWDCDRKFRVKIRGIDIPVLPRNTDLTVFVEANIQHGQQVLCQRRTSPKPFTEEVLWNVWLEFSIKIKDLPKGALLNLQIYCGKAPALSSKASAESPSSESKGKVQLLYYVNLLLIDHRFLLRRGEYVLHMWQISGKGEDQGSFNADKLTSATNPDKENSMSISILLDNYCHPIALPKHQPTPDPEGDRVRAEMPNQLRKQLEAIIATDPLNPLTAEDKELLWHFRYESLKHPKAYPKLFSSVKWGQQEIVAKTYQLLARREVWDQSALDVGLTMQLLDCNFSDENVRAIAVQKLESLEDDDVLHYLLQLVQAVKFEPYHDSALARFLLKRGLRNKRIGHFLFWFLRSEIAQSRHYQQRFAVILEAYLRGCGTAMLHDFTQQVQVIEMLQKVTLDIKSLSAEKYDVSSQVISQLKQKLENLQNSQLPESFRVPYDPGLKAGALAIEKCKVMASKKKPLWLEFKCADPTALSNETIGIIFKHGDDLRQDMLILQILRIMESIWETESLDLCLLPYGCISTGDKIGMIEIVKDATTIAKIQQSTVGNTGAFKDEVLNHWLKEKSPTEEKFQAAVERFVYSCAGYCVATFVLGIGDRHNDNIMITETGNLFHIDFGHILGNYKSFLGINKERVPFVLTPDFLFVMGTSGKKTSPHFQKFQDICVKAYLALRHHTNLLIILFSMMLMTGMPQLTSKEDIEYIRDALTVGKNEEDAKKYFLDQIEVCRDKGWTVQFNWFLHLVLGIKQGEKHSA
compound,measurement,setting,value
COc1ncc(-c2ccc3ncc(OCCN(C)C)c(=O)n3c2)cc1NS(=O)(=O)c1ccc(F)cc1Cl [Compound 1],IC50,PI3Kα,0.6 ± 0.2 nM
same,IC50,PI3K (p110α),≤ 1 nM
same,IC50,PI3Kγ,7 ± 0.9 nM
same,anti-tumor activity compared to the positive control drug BKM120,[1]; colon cancer CO-04-0032,more excellent anti-tumor activity
same,increase in tumor volume,"[1]; from day 15 to day 30 of the administration, CO-04-0032",almost no increase in tumor volume

# Reference: US10479789B2, “Pyrido[1,2-A]pyrimidone analog, crystal form thereof, intermediate thereof and preparation method therefor” (Chia Tai Tianqing Pharmaceutical Group Co., Ltd., priority 2015, dated 2019)
